# Laboratory results as given in US20240368209A1, “GEMCITABINE ANTICANCER DERIVATIVE AND ANTICANCER PHARMACEUTICAL USE” (ASCENTAWITS PHARMACEUTICALS, LTD., priority 2021, published 2024).
# Like-named read-outs stand apart in the source and are kept apart here.
# System: H460 non-small cell lung cancer human tumor cell line
# Assay: In vitro human tumor cell line cytotoxicity (proliferation) assay on H460, CTG, with or without AST-3021
# Type: cell-based
# Conditions: for IC50: Homo sapiens
# Protocol: In vitro human tumor cell line cytotoxicity assay was used.
# In vitro proliferation data on the H460 non-small cell lung cancer human tumor cell line (cell line which highly expresses AKR1C3) is reported below in the compound table.
# IC50 values were obtained with the following steps:
# Specifically, exponentially growing cells were seeded at a density of 2×10^3 cells/100 μL/well in a 96-well plate and incubated at 37° C. in 5% CO2, 95% air and 100% relative humidity for 24 hours. The test compound was administered alone: 24 hours after cell plating, the compound acted alone, 99 μL of growth medium per well was added, and 1 μL of the compound prepared at 200× was added, and the plate was shaken gently to ensure even mixing, then placed into an incubator of 37° C., 5% CO2. After further cultivation for 72 hours, the number of live cells was detected using CTG. The CTG detection method was as follows: the cell plate to be tested was placed at room temperature to equilibrate for 30 minutes, and 100 μL of medium per well was discarded. 25 μL of CTG reagent (CellTiter-Glo® kit) per well was added, and the plate was placed in a high-speed shaker to oscillate for 2 minutes, and placed at room temperature in the dark for 30 minutes. The chemiluminescence signal value was read using a multimode microplate reader, with a read time of 1000 ms.
# Similarly, in order to further verify that the compounds were activated by human AKR1C3 (aldosterone reductase family 1 member C3), the effect of some of the compounds on the proliferation of H460 cancer cells was tested with pretreatment with a specific AKR1C3 enzyme inhibitor AST-3021 (3 μM). The detailed experimental procedure was as follows: 24 hours after cell plating, 98 μL of growth medium per well was added, and 1 μL of 200×compound AST-3021 was added to each well, and the plate was shaken gently to ensure even mixing, and then placed into an incubator; after 2 hours, 1 μL of the test compound prepared at 200× was added, and the plate was shaken gently to ensure even mixing and then laced into an incubator of 37° C., 5% CO2. The inhibitor used was compound 36, i.e.
# in Flanagan et al., Bioorganic and Medicinal Chemistry (2014), page 962-977, and is referred to as AST-3021 in this invention. The values measured in this case are values corresponding to +AST-3021 IC50 (nM) in Table 1.
# The value corresponding to +AST-3021 IC50 (nM) divided by the value corresponding to IC50 (nM) is the specific activation ratio. The relative magnitude of the specific activation ratio can be used to evaluate whether this compound is a cytotoxic compound activated by human AKR1C3 (aldosterone reductase family 1 member C3): when the specific activation ratio is less than 1, it is considered that the compound is not activated by human AKR1C3 (aldosterone reductase family 1 member C3); when the specific activation ratio is greater than 1, it is considered that the compound is activated by human AKR1C3 (aldosterone reductase family 1 member C3), and the higher the value, the higher the activation degree and the selectivity of AKR1C3.
# [1] = NCI-H460, compound alone, 72 hours, read-out: IC50
# [2] = NCI-H460, pretreatment with AKR1C3 inhibitor AST-3021 (3 μM), read-out: +AST-3021 IC50
SMILES,specific activation ratio (+AST-3021 IC50/IC50),IC50 [1],IC50 [2]
"CCN(CC)P(=O)(OCc1ccc([N+](=O)[O-])c(Oc2ccc(-c3ccc(F)cc3)c(F)c2)c1)OCC1OC(n2ccc(N)nc2=O)C(F)(F)C1O (stereo not drawn) [Compound D2, reference compound]",45.1,96.9 nM,4370 nM
"Nc1ccn(C2OC(COP(=O)(OCc3ccc([N+](=O)[O-])c(Oc4ccc(-c5ccc(F)cc5)c(F)c4)c3)Oc3ccccc3)C(O)C2(F)F)c(=O)n1 (stereo not drawn) [Compound D6, reference compound]",0.54,20.6 nM,11.2 nM
"Nc1ccn(C2OC(COP(=O)(OCc3ccc([N+](=O)[O-])c(Oc4ccc(C(F)(F)F)cc4)c3)Oc3ccccc3)C(O)C2(F)F)c(=O)n1 (stereo not drawn) [Compound D7, reference compound]",0.77,50.3 nM,38.9 nM
"CC(OP(=O)(OCC1OC(n2ccc(N)nc2=O)C(F)(F)C1O)N(C)C)c1ccc([N+](=O)[O-])c(Oc2ccc(-c3ccc(F)cc3)c(F)c2)c1 (stereo not drawn) [Compound D9, reference compound]",56.5,67.8 nM,3830 nM
CNP(=O)(OCc1ccc([N+](=O)[O-])c(Oc2ccc(-c3ccc(F)cc3)c(F)c2)c1)OCC1OC(n2ccc(N)nc2=O)C(F)(F)C1O (stereo not drawn) [Compound H1],24.2,29.4 nM,712 nM
CCNP(=O)(OCc1ccc([N+](=O)[O-])c(Oc2ccc(-c3ccc(F)cc3)c(F)c2)c1)OCC1OC(n2ccc(N)nc2=O)C(F)(F)C1O (stereo not drawn) [Compound H2],47.8,19.9 nM,951 nM
Nc1ccn(C2OC(COP(=O)(NCCBr)OCc3ccc([N+](=O)[O-])c(Oc4ccc(-c5ccc(F)cc5)c(F)c4)c3)C(O)C2(F)F)c(=O)n1 (stereo not drawn) [Compound H4],6.2,5.15 nM,31.7 nM
CNP(=O)(OCc1ccc([N+](=O)[O-])c(Oc2ccc(C(F)(F)F)cc2)c1)OCC1OC(n2ccc(N)nc2=O)C(F)(F)C1O (stereo not drawn) [Compound H5],4.2,117 nM,499 nM
CCNP(=O)(OCc1ccc([N+](=O)[O-])c(Oc2ccc(C(F)(F)F)cc2)c1)OCC1OC(C2N=CC(N)=NC2=O)C(F)(F)C1O (stereo not drawn) [Compound H6],12.9,178 nM,2300 nM
CC(C)CNP(=O)(OCc1ccc([N+](=O)[O-])c(Oc2ccc(-c3ccc(F)cc3)c(F)c2)c1)OCC1OC(C2N=CC(N)=NC2=O)C(F)(F)C1O (stereo not drawn) [Compound H7],61.3,26.8 nM,1640 nM
NC1=NC(=O)C(C2OC(COP(=O)(NCc3ccccc3)OCc3ccc([N+](=O)[O-])c(Oc4ccc(-c5ccc(F)cc5)c(F)c4)c3)C(O)C2(F)F)N=C1 (stereo not drawn) [Compound H8],44.8,67.5 nM,3020 nM
NC1=NC(=O)C(C2OC(COP(=O)(NCc3ccccc3)OCc3ccc([N+](=O)[O-])c(Oc4ccc(C(F)(F)F)cc4)c3)C(O)C2(F)F)N=C1 (stereo not drawn) [Compound H9],23.2,78.2 nM,1810 nM
CC(C)CNP(=O)(OCc1ccc([N+](=O)[O-])c(Oc2ccc(C(F)(F)F)cc2)c1)OCC1OC(C2N=CC(N)=NC2=O)C(F)(F)C1O (stereo not drawn) [Compound H10],27.7,105 nM,2900 nM
CCNP(=O)(OCc1ccc([N+](=O)[O-])c(Oc2ccc(C(=O)N3CCCCC3)cc2)c1)OCC1OC(n2ccc(N)nc2=O)C(F)(F)C1O (stereo not drawn) [Compound H13],9.4,393 nM,3680 nM
CCNP(=O)(OCc1ccc([N+](=O)[O-])c(Oc2ccc(C(=O)N3CCC(C(F)(F)F)CC3)cc2)c1)OCC1OC(n2ccc(N)nc2=O)C(F)(F)C1O (stereo not drawn) [Compound H14],1.9,1770 nM,3300 nM
CCNP(=O)(OCc1ccc([N+](=O)[O-])c(Oc2cccc(C(=O)N3CCCCC3)c2)c1)OCC1OC(n2ccc(N)nc2=O)C(F)(F)C1O (stereo not drawn) [Compound H15],5.0,486 nM,2420 nM
CCNP(=O)(OCc1ccc([N+](=O)[O-])c(Oc2cccc(C(=O)N3CCC(C(F)(F)F)CC3)c2)c1)OCC1OC(n2ccc(N)nc2=O)C(F)(F)C1O (stereo not drawn) [Compound H16],8.9,377 nM,3370 nM
Nc1ccn(C2OC(COP(=O)(NC3CCCCC3)OCc3ccc([N+](=O)[O-])c(Oc4ccc(-c5ccc(F)cc5)c(F)c4)c3)C(O)C2(F)F)c(=O)n1 (stereo not drawn) [Compound H17],27.2,397 nM,10800 nM
Nc1ccn(C2OC(COP(=O)(NC3CCCCC3)OCc3ccc([N+](=O)[O-])c(Oc4ccc(C(F)(F)F)cc4)c3)C(O)C2(F)F)c(=O)n1 (stereo not drawn) [Compound H18],3.7,461 nM,1700 nM
CCNP(=O)(OCc1ccc([N+](=O)[O-])c(Oc2ccc3ncccc3c2)c1)OCC1OC(n2ccc(N)nc2=O)C(F)(F)C1O (stereo not drawn) [Compound H19],3.4,150 nM,510 nM
CCNP(=O)(OCc1ccc([N+](=O)[O-])c(Oc2ccc3nc(C)sc3c2)c1)OCC1OC(n2ccc(N)nc2=O)C(F)(F)C1O (stereo not drawn) [Compound H20],6.2,232 nM,1430 nM
CCNP(=O)(OCC1OC(n2ccc(N)nc2=O)C(F)(F)C1O)OC(C)c1ccc([N+](=O)[O-])c(Oc2ccc(-c3ccc(F)cc3)c(F)c2)c1 (stereo not drawn) [Compound H21],34.8,127 nM,4410 nM
CC(OP(=O)(NCCBr)OCC1OC(n2ccc(N)nc2=O)C(F)(F)C1O)c1ccc([N+](=O)[O-])c(Oc2ccc(-c3ccc(F)cc3)c(F)c2)c1 (stereo not drawn) [Compound H22],19.2,124 nM,2370 nM
CNP(=O)(OCC1OC(n2ccc(N)nc2=O)C(F)(F)C1O)OC(C)c1ccc([N+](=O)[O-])c(Oc2ccc(C(F)(F)F)cc2)c1 (stereo not drawn) [Compound H23],29.8,379 nM,11300 nM
CCNP(=O)(OCC1OC(n2ccc(N)nc2=O)C(F)(F)C1O)OC(C)c1ccc([N+](=O)[O-])c(Oc2ccc(C(=O)N3CCCCC3)cc2)c1 (stereo not drawn) [Compound H24],19.1,1120 nM,21400 nM
CCNP(=O)(OCC1OC(n2ccc(N)nc2=O)C(F)(F)C1O)OC(C)c1ccc([N+](=O)[O-])c(Oc2cccc(C(=O)N3CCCCC3)c2)c1 (stereo not drawn) [Compound H25],9.6,515 nM,4940 nM
CCNP(=O)(OCc1ccc([N+](=O)[O-])c(Oc2ccc(-c3ccc(F)cn3)cc2)c1)OCC1OC(n2ccc(N)nc2=O)C(F)(F)C1O (stereo not drawn) [Compound H28],20.4,233 nM,4760 nM
Nc1ccn(C2OC(COP(=O)(NC3CCCC3)OCc3ccc([N+](=O)[O-])c(Oc4ccc(-c5ccc(F)cc5)c(F)c4)c3)C(O)C2(F)F)c(=O)n1 (stereo not drawn) [Compound H29],47.17,82.2 nM,3880 nM
